Test results: patent US8133471B2, “CLK-peptide and SLK-peptide” (New York University, priority 2003, dated 2012)

Assays:
[1] = test system: Metastatic B16 murine melanoma cells; assay: B16 melanoma cell adhesion to native or denatured collagen type-IV (Example 3); type: cell-based
Excerpt: FIG. 2 is a chart which illustrates B16 murine melanoma cell adhesion to untreated denatured collagen type-IV (NT), CLK-peptide treated denatured collagen type-IV, and SHR-peptide treated denatured collagen type-IV.
Non-tissue culture treated 48-well plates were coated with either native (triple helical) or denatured collagen type-IV. Metastatic B16 murine melanoma cells were allowed to attach to the coated wells in the presence or absence of either CLK or SHR (control) peptide. CLK-peptide blockade of B16 cell adhesion to denatured type-IV collagen exceeded 95% (FIG. 2). CLK-peptide had little effect on B16 melanoma cell adhesion to native collagen type-IV.

[2] = test system: denatured collagen type-IV; assay: Competition ELISA, mAb HUIV26 binding to denatured collagen type-IV with or without CLK-peptide; conditions: HUIV26 1 μg/ml; CLK-peptide 100 μg/ml; 2 hours 37° C.
Experimental: FIG. 14 Inhibition of Binding of Labeled CLK-Peptide to Denatured Collagen Type-IV by mAbs HUI77. To examine the binding specificity of the synthetic CLK-Peptide, the peptide was labeled and solid phase ELISAs were performed. Denatured collagen type-IV (10 μg/ml) was coated on microtiter wells and binding of either HRP-labeled CLK-Peptide or mAbs (mAbs HUI77 or HUIV26) was measured by ELISA at a wavelength of 490 nm. […] B. MAb HUIV26 was allowed to bind the denatured collagen in the presence or absence of CLK-Peptide.
Microtiter wells were coated with denatured collagen type-IV (1 μg/ml) overnight at 4° C., and the plates blocked with 1% BSA for 1 hour at 37° C. HUIV26 was added at 1 μg/ml and allowed to bind the denatured collagen in the presence or absence of 100 μg/ml CLK-peptide for 2 hours at 37° C. Labeled goat-anti-mouse antibody was added at 1:3000 and incubation was allowed for 1 hour at 37° C. Color solution, then a stopping solution of 4N sulfuric acid, were added and binding was quantified by measuring the O.D. at 490 nm. […] Similar results were obtained over a wide range of peptide and antibody concentrations (1 to 100 μg/ml) (data not shown).

[3] = test system: bFGF-induced angiogenesis in chick chorioallantoic membrane (CAM); assay: bFGF-induced angiogenesis in the chick CAM model; type: in vivo
Excerpt: FIG. 3A, FIG. 3B, and FIG. 3C depict a chick chorioallantoic membrane (CAM) without bFGF-induced angiogenesis, a CAM following bFGF-induced angiogenesis, and a CAM treated with CLK-peptide after bFGF-induced angiogenesis, respectively.
FIG. 4 is a chart which illustrates quantification of CAM angiogenic blood vessels following bFGF-induced angiogenesis without subsequent CLK-peptide treatment and CAM angiogenic blood vessels following bFGF-induced angiogenesis with subsequent CLK-peptide treatment.
Angiogenesis was induced within the chorioallantoic membrane (CAM) of 10-day old chick embryos with bFGF. Twenty-four hours later, 8-10 of the embryos were treated with a single intravenous injection of CLK-peptide (100 ug/embryo). At the end of a 3-day incubation period, the CAM tissues were removed for analysis. […] (FIGS. 3 (a),(b),(c)) The single injection of CLK-peptide inhibited bFGF by greater than 95%. […] Eight to ten chick embryos were tested in each of the two groups, and the experiment was repeated three times for a total of 24-30 chick embryos tested.

[4] = test system: denatured collagen type-IV; assay: Competition ELISA, mAb HUIV26 or HUI77 binding to denatured collagen with or without CLK-peptide (Example 16); conditions: collagen coated at 10 μg/ml; 1:1 ratio
Experimental: FIG. 17 CLK-Peptide Binds to the HUI77 Cryptic Collagen Epitope. To examine the epitope bound by CLK, competition ELISAs were carried out. Microtiter wells were coated with denatured collagen type-IV (10 μg/ml), and mAb HUIV26 or HUI77 were allowed to bind the denatured collagen in the presence or absence of CLK-peptide.
ELISAs were performed to examine the binding specificity of CLK-Peptide. Denatured type-IV collagen (10 μg/ml) was coated on microtiter wells and CLK-peptide allowed to bind in the presence or absence of Mab HUI77 or Mab HUIV26 at a 1:1 ratio. HRP-labeled goat anti-mouse secondary antibodies were used to detect murine Mabs HUI77 and HUIV26, directed to distinct cryptic epitope within collagen type-IV, and the O.D. at 490 nm measured.

[5] = test system: Glioblastoma (GL261) cells; assay: GL261 glioblastoma cell adhesion to collagen type-IV; type: cell-based, murine
Experimental: FIG. 21 Effects of CLK-Peptide on Glioblastoma Cell Adhesion to Denatured Collagen Type-IV.
To assess the functional significance of the HUI77/CLK cryptic epitope, cell adhesion assays using a glioblastoma cell line were performed. Microtiter plates were coated with denatured collagen type-IV (10 μg/ml). Glioblastoma (GL261) cells were resuspended in adhesion buffer in the presence or absence of CLK-peptide or a non-specific control (CTW) peptide (50 μg/ml) and the […] were incubated in the coated wells for 30 minutes. Non-attached cells were removed by washing, and attached cells quantified by staining with crystal violet.

[6] = test system: GL261 glioblastoma tumors; assay: GL261 tumors grown on chick CAMs, CLK-peptide combined with ionizing radiation; type: in vivo; conditions: CLK-peptide 50 μg/embryo + 5.0 Gy; 7-day incubation
Experimental: FIG. 25 Effects of CLK-Peptide on Anti-Tumor Activity of Ionizing Radiation In Vivo. Glioblastoma tumors grown on CAMs were treated with either CLK-Peptide, ionizing radiation, both, or left untreated as a control. Their relative sizes after incubation are shown. FIG. 26 Quantitation of the Effects of CLK-Peptide on Anti-tumor Activity of Ionizing Radiation in vivo. Glioblastoma tumors grown on CAMs were treated with either CLK-Peptide, ionizing radiation, both, or left untreated as a control. Their relative wet weights following treatment are graphed. The effects of CLK-peptide in combination with ionizing radiation on tumor growth in vivo were assessed. GL261 glioblastoma cells were seeded on the CAMs of 10-day old chick embryos. Twenty-four hours later, the embryos were injected systemically with CLK-peptide (50 μg/embryo). Twenty-four hours after CLK-peptide treatment the embryos were either untreated or irradiated with a single fraction dose of ionizing radiation (5.0 Gy). Photographs showing the relative sizes of […] given each treatment individually, the combination treatment, and not treated, are shown in FIG. 25. At the end of the 7-day incubation period the tumors (N=6 to 8 per condition) were removed and wet weights determined.

For “H-CLKQNGGNFSLG-OH [CLK-peptide, NH2-C-L-K-Q-N-G-G-N-F-S-L-G-COOH]”, the “blockade of B16 cell adhesion to denatured type-IV collagen” value ([1]; wells coated with denatured collagen type-IV) was “exceeded 95%”, the “effect on B16 melanoma cell adhesion to native collagen type-IV” value ([1]; wells coated with native (triple helical) collagen type-IV) was “little effect” and the “blocking of mAb HUIV26 binding to denatured collagen type-IV” value [2] was “did not block”. The “adverse effects following injection” value ([3]; chick embryos, 100 ug/embryo intravenous) was “No adverse effects”, the “number of branching vessels within the area of the filter disc” value ([3]; single intravenous injection 100 ug/embryo) was “dramatic reduction” and the “inhibition of bFGF (induced angiogenesis)” value ([3]; single intravenous injection 100 ug/embryo, 3-day incubation) was “greater than 95%”. The “blocking of mAb HUI77 binding to denatured collagen” value [4] was “significantly blocked”, the “blocking of mAb HUIV26 binding to denatured collagen” value [4] was “did not block” and the “inhibition of glioblastoma cell adhesion to denatured collagen type-IV” value ([5]; 50 μg/ml, 30 minutes) was 90%. The “effect on glioblastoma cell adhesion to native intact collagen type-IV” value ([5]; data not shown) was “no effect” and the “inhibition of tumor growth (wet weights), combination therapy versus either treatment alone” value [6] was “greater”.
